For test [1], the target named is T1, trypsin (Homo sapiens (Human), UniProt P07477). Kind of test: Trypsin inhibition. The class given is biochemical. As for the experimental part:
(§1) The inhibitory of activity of compounds described herein was tested against Kgp, RgpB, and trypsin.

Test [2] deals with abeta 42. Kind of test: Brain abeta 42 ELISA in mice orally infected with P. gingivalis. The class given is in vivo, Balb/cJ mice. As to conditions: subcutaneously three times per day on days 21-42. The text has this: Female Balb/cJ mice were obtained from Taconic and allowed to acclimate. 43-44 week old mice were challenged orally with 10^9 CFU W83 P. gingivalis or a P. gingivalis strain lacking expression of Kgp every other day for 42 days. Compound 2 or vehicle (2% DMSO) was given subcutaneously three times per day on days 21-42. On day 42 mice were sacrificed and the brain removed and frozen. A sample including hippocampal tissue was lysed in RIPA buffer with protease inhibitors and analyzed for Abeta42 expression with the Amyloid beta 42 ELISA Kit, Mouse (Life Technologies).

For test [3], the system named is differentiated SHSY-5Y cells. Kind of test: Gingipain-induced death of differentiated SH-SY5Y cells. The class given is cell-based. As to conditions: 100 nM Kgp and/or RgpB for 24 hours. The protocol: SH-SY5Y neuroblastoma cells were cultured and differentiated in the presence of 5 uM retinoic acid based on established methods [Saberi S., et al. Cell Mol Neurobiol 2013. 33: 747-751]. Differentiation into neuronal cells was verified by observation of neurite outgrowth. The differentiated cells were exposed to 100 nM Kgp and/or RgpB for 24 hours, in the presence or absence of Kgp inhibitors. Results were recorded using a digital microscope camera (FIG. 1C, FIG. 2C). Gingipains are toxic to cells while COR compounds prevent the cytotoxicity.

Test [4] concerns the target lysine gingipain (Kgp) (Porphyromonas gingivalis (strain ATCC 33277 / DSM 20709 / CIP 103683 / JCM 12257 / NCTC 11834 / 2561), UniProt B2RLK2). Description: Lysine gingipain (Kgp) fluorogenic inhibition assay. The format is biochemical. The protocol:
The capacities of compounds of the present invention to inhibit the activity of lysine gingipain were measured in a fluorogenic assay similar to those described in Barret Biochemical Journal. 1980, 187(3), 909. The specific assay conditions were as follows. Buffer: pH=7.5, 100 mM Tris-HCl, 75 mM NaCl, 2.5 mM CaCl2, 10 mM cysteine, 1% DMSO after all additions. Protein: 0.1 nM Kgp, isolated from culture of Porphyromonas gingivalis, as described in Pike et al. J. Biol. Chem. 1994, 269(1), 406, and Potempa and Nguyen. Current Protocols in Protein Scienc. 2007, 21.20.1-21.20.27. Fluorogenic substrate: 10 uM Z-His-Glu-Lys-MCA. Time=90 minutes. Temperature=37° C. Each compound: 10 concentrations, starting at either 100 uM or 100 nM, with lower concentrations generated by serial 3-fold dilutions. By testing a range of concentrations for each compound, the concentration required to inhibit the activity of lysine gingipain by 50% (the “IC50”) was determined. Under the described assay conditions, signal-to-noise was excellent, and Z factor was greater than 0.6.
as §1

Test [5] addresses RgpB (Porphyromonas gingivalis (strain ATCC BAA-308 / W83), UniProt P95493). Kind of test: RgpB inhibition. The class given is biochemical. The protocol:
as §1

Test [6] has as its system SHSY5Y cells. Description: P. gingivalis-induced toxicity in SHSY5Y cells in vitro. The format is cell-based. As to conditions: compared to the antibiotic moxifloxacin.
Test [7] deals with T1, trypsin. As to conditions: cited from earlier work.
Test [8] addresses Kgp (Porphyromonas gingivalis (strain ATCC 33277 / DSM 20709 / CIP 103683 / JCM 12257 / NCTC 11834 / 2561), UniProt B2RLK2). As to conditions: cited from earlier work.

Entries after “also recorded” stand apart in the source; their conditions may differ. Like-named read-outs stand apart in the source and are kept apart here.

For orientation: IC50 means the concentration that inhibits the measured activity by half. In general, Ki refers to the equilibrium dissociation constant of an inhibitor or competing ligand from its target.

In the case of `NCCCC[C@H](NC(=O)C1CCCCC1)C(=O)c1nc2ccccc2s1` [Compound 2, N-[(1S)-5-amino-1-(1,3-benzothiazole-2-carbonyl)pentyl]cyclohexanecarboxamide], the concentration for half-maximal inhibition (IC50) in test [1] was 5000 nM; in test [4] (read-out: Kgp IC50) it was 1 to 10 nM. Besides, the “brain levels of abeta 42 (ELISA)” value in test [2] is listed as “resolved; also recorded: increase in abeta42 that was not apparently”. The “prevention of gingipain-induced death of differentiated SHSY-5Y cells” value in test [3] is reported as “prevents; also recorded: more effective; also recorded: effective at preventing cell death”.

Regarding `NCCCC[C@H](NC(=O)C1CCCC1)C(=O)COc1c(F)c(F)cc(F)c1F` [Compound 43, N-[(1S)-5-amino-1-[2-(2,3,5,6-tetrafluorophenoxy)acetyl]pentyl]cyclo-pentanecarboxamide], the IC50 is > 475 nM in test [5] and ≤ 1 nM in test [4] (0.1 nM Kgp, 10 uM Z-His-Glu-Lys-MCA, 90 minutes, 37° C., pH 7.5, read-out: Kgp IC50 average). Moreover, in test [4] (in words), the “lysine gingipain IC50 value” is given as “sub-nanomolar”. The “protection of SHSY5Y cells from P. gingivalis-induced toxicity” value in test [6] was “protects”.

`NCCC[C@H](NC(=O)C1CCCN(C(=O)CCc2ccccc2)C1)C(=O)c1nc2ccccc2s1` (mixture of isomers) [Compound A71561, 1-(3-phenylpropionyl)piperidine-3(R,S)-carboxylic acid [4-amino-1(S)-(benzothiazole-2-carbonyl)butyl]amide]: the inhibition constant Ki is 30 nM in test [7] and 0.9 nM in test [8].

(Values after patent US9988375B2, “Inhibitors of lysine gingipain” (priority 2014, dated 2018).)
